Laboratory results published in patent US11807650B2, “NMDA receptor modulators and uses thereof” (Novartis AG, priority 2016, dated 2023).

These compounds were tested against T1, human GRIN1 (transcript variant NR1-3) and GRIN2D expressed in Xenopus oocytes (Homo sapiens, UniProt O15399) (assay: NR2D oocyte potentiation assay (two-electrode voltage clamp)). Conditions: 10 uM test compound; glutamate and glycine 10 μM each; holding potential −40 mV.
T1 construct: GenScript (GRIN2D synthesis) SC115601; host or cells: Xenopus oocytes injected with cRNA (1 GluN1 : 2 GluN2)
T1 sequence (O15399 28-1336, other chains not shown): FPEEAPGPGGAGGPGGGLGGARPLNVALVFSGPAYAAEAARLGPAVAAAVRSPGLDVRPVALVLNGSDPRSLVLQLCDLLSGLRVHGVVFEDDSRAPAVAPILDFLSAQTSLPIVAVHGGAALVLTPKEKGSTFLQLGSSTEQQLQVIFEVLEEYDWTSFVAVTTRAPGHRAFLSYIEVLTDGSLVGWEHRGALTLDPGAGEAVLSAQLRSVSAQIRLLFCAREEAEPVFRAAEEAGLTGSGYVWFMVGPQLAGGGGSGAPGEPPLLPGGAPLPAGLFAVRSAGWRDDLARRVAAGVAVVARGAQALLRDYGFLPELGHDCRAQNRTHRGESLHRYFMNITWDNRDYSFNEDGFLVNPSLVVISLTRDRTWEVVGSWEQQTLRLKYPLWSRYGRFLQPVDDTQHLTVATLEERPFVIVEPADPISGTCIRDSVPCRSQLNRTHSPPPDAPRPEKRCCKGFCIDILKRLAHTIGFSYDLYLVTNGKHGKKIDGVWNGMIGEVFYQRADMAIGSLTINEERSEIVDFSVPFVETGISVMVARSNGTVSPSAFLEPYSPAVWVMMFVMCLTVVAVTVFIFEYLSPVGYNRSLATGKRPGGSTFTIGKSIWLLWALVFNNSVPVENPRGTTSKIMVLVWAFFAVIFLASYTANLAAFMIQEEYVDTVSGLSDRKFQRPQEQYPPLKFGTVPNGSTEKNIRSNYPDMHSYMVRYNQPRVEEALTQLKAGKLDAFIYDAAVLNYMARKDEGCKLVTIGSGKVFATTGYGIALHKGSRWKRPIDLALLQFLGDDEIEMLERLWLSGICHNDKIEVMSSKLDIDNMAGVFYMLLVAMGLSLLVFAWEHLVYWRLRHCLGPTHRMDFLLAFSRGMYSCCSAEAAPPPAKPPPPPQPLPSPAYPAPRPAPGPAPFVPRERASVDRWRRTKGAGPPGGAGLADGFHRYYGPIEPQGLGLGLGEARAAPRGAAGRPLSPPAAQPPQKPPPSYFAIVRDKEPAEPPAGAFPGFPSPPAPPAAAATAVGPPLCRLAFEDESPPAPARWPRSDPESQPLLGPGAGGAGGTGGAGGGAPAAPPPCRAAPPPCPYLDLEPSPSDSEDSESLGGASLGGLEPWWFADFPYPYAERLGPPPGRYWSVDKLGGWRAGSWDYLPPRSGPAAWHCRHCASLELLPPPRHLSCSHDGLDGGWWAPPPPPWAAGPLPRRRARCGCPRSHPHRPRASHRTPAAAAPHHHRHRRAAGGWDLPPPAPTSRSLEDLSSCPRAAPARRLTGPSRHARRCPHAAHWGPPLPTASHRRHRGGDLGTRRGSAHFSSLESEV
Assay type: cell-based
Procedure, shortened: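 Xenopus oocytes were defolliculated with collagenase, then injected with 50 nL of cRNA encoding human GluN1 (NR1-3 variant) and GluN2D mixed 1:2 and kept 72 h at 16° C. Two-electrode voltage clamp at −40 mV recorded currents; after 10 μM glutamate plus 10 μM glycine reached plateau, test compound was added until a new plateau formed.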

| Structure (SMILES) | activation at 10 µM [%] | NR2D Oocyte % Potentiation @ 10 uM |
| --- | --- | --- |
| CC1CSc2nc(-c3ccc(C4(C)CC4(F)F)nc3)c(C#N)c(=O)n2C1 (stereo not shown) [Example 111, 8-[6-(2,2-difluoro-1-methyl-cyclopropyl)pyridin-3-yl]-3-methyl-6-oxo-2H,3H,4H,6H-pyimido[2,1-b] [1,3]thiazine-7-carbonitrile] | 500 to 1000 | – |
| CCOC(=O)c1ccc(-c2nc3n(c(=O)c2C#N)CCCS3)cn1 [Example 82, ethyl 5-(7-cyano-6-oxo-3,4-dihydro-2H,6H-pyrimido[2,1-b][1,3]thiazin-8-yl)picolinate] | – | Inhibitor |
| CC(C)(C)c1ccc(-c2nc3n(c(=O)c2C#N)CCCO3)cn1 [Example 77, 8-(6-(tert-butyl)pyridin-3-yl)-6-oxo-3,4-dihydro-2H,6H-pyrimido[2,1-b][1,3]oxazine-7-carbonitrile] | 10 to 100 | – |
| CCOC(=O)c1ccc(-c2nc3n(c(=O)c2C#N)CC(C)CS3)cn1 (stereo not shown) [Example 84, ethyl 5-(7-cyano-3-methyl-6-oxo-3,4-dihydro-2H,6H-pyrimido[2,1-b][1,3]thiazin-8-yl)picolinate] | < 10 | – |
| CSc1cc(-c2nc3n(c(=O)c2C#N)CCCS3)cnc1C(C)(C)C [Example 62, 8-(6-(tert-butyl)-5-(methylthio)pyridin-3-yl)-6-oxo-3,4-dihydro-2H,6H-pyrimido[2,1-b][1,3]thiazine-7-carbonitrile] | > 1000 | – |
| C[C@@H]1CSc2cc(-c3cnc(C(C)(C)C)c(F)c3)c(C#N)c(=O)n2C1 [Example 107, (S)-8-(6-(tert-butyl)-5-fluoropyridin-3-yl)-3-methyl-6-oxo-3,4-dihydro-2H,6H-pyrido[2,1-b][1,3]thiazine-7-carbonitrile] | 500 to 1000 | – |
| CC1CCc2nc(-c3ccc(C(C)(C)C)nc3)c(C#N)c(=O)n2C1 (stereo not shown) [Example 34, 2-(6-(tert-butyl)pyridin-3-yl)-7-methyl-4-oxo-6,7,8,9-tetrahydro-4H-pyrido[1,2-a]pyrimidine-3-carbonitrile] | 10 to 100 | – |
| N#Cc1c(-c2ccc(N3CC(F)(F)C3)nc2)nc2n(c1=O)CCCS2 [Example 55, 8-(6-(3,3-difluoroazetidin-1-yl)pyridin-3-yl)-6-oxo-3,4-dihydro-2H,6H-pyrimido[2,1-b][1,3]thiazine-7-carbonitrile] | – | Inhibitor |
| CC1CSc2nc(-c3ccc(C(C)(C)C#N)nc3)c(C#N)c(=O)n2C1 (stereo not shown) [Example 79, 8-[6-(1-cyano-1-methylethyl)pyridin-3-yl]-3-methyl-6-oxo-2H,3H,4H,6H-pyrimido[2,1-b] [1,3]thiazine-7-carbonitrile] | 100 to 500 | – |
| C[C@@H]1CSc2cc(-c3cnc(C(C)(C)C)nc3)c(C#N)c(=O)n2C1 [Example 105, (S)-8-(2-(tert-butyl)pyrimidin-5-yl)-3-methyl-6-oxo-3,4-dihydro-2H,6H-pyrido[2,1-b][1,3]thiazine-7-carbonitrile] | > 1000 | – |
| CSc1cc(-c2nc3n(c(=O)c2C#N)CC(C)CS3)cnc1C(C)(C)C (stereo not shown) [Example 61, 8-(6-(tert-butyl)-5-(methylthio)pyridin-3-yl)-3-methyl-6-oxo-3,4-dihydro-2H,6H-pyrimido[2,1-b][1,3]thiazine-7-carbonitrile] | > 1000 | – |
| CC(C)(C)c1ncc(-c2cc3n(c(=O)c2C#N)CCCS3)cc1F [Example 102, 8-(6-(tert-butyl)-5-fluoropyridin-3-yl)-6-oxo-3,4-dihydro-2H,6H-pyrido[2,1-b][1,3]thiazine-7-carbonitrile] | > 1000 | – |
| C[S+]([O-])c1c(-c2ccc(C(C)(C)C)cc2)nc2n(c1=O)CCCC2 (stereo not shown) [Example 26, 2-(4-(tert-butyl)phenyl)-3-(methylsulfinyl)-6,7,8,9-tetrahydro-4H-pyrido[1,2-a]pyrimidin-4-one] | < 10 | – |
| CC1(c2ccc(-c3nc4n(c(=O)c3C#N)CCCS4)cn2)CC1 [Example 109, 8-[6-(1-methyl-cyclopropyl)pyridin-3-yl]-6-oxo-2H,3H, 4H,6H-pyrimido[2,1-b] [1,3]thiazine-7-carbonitrile] | 500 to 1000 | – |
| CC(C)(C)c1ccc(-c2nc3n(c(=O)c2C#N)CCS3)cn1 [Example 1, 7-(6-(tert-butyl)pyridin-3-yl)-5-oxo-2,3-dihydro-5H-thiazolo[3,2-a]pyrimidine-6-carbonitrile] | 100 to 500 | – |
| N#Cc1c(-c2ccc(C3(C(F)(F)F)CC3)cc2)nc2n(c1=O)CCCS2 [Example 47, 6-oxo-8-(4-(1-(trifluoromethyl)cyclopropyl)phenyl)-3,4-dihydro-2H,6H-pyrimido[2,1-b][1,3]thiazine-7-carbonitrile] | 500 to 1000 | – |
| CSc1c(-c2ccc(C(C)(C)C)nc2)nc2n(c1=O)CCCC2 [Example 27, 2-(6-tert-butylpyridin-3-yl)-3-(methylsulfanyl)-4H,6H,7H, 8H,9H-pyrido[1,2-a] pyrimidin-4-one] | < 10 | – |
| CC1(c2ccc(-c3nc4n(c(=O)c3C#N)CCCS4)cn2)CC1(F)F (stereo not shown) [Example 110, 8-(6-(2,2-difluoro-1-methylcyclopropyl)pyridin-3-yl)-6-oxo-3,4-dihydro-2H,6H-pyrimido[2,1-b][1,3]thiazine-7-carbonitrile] | 500 to 1000 | – |
| CC(C)(C)c1ccc(-c2nc3n(c(=O)c2C#N)CN(c2ccccc2)CS3)cc1 [Example 5, 8-(4-(tert-butyl)phenyl)-6-oxo-3-phenyl-3,4-dihydro-2H,6H-pyrimido[2,1-b][1,3,5]thiadiazine-7-carbonitrile] | 10 to 100 | – |
| CC(C)(C)c1ccc(-c2cc(=O)n3ccccc3n2)cc1 [Example 12, 2-(4-(tert-butyl)phenyl)-4H-pyrido[1,2-a]pyrimidin-4-one] | 10 to 100 | – |
| CC(C)(C)c1ccc(-c2nc3ccccn3c(=O)c2C#N)cc1 [Example 18, 2-(4-(tert-butyl)phenyl)-4-oxo-4H-pyrido[1,2-a]pyrimidine-3-carbonitrile] | 100 to 500 | – |
| CCC1CSc2nc(-c3ccc(C(C)(C)C)nc3)c(C#N)c(=O)n2C1 (stereo not shown) [Example 81, 8-(6-tert-butylpyridin-3-yl)-3-ethyl-6-oxo-2H,3H,4H, 6H-pyrimido [2,1-b][1,3] thiazine-7-carbonitrile] | > 1000 | – |

Other lines, results leading:

| activation at 10 µM [%] | NR2D Oocyte % Potentiation @ 10 uM | Structure (SMILES) |
| --- | --- | --- |
| > 1000 | – | COCOC[C@H]1CSc2nc(-c3cnc(C(C)(C)C)c(F)c3)c(C#N)c(=O)n2C1 [Example 171, (S)-8-(6-(tert-butyl)-5-fluoropyridin-3-yl)-3-((methoxymethoxy)methyl)-6-oxo-3,4-dihydro-2H,6H-pyrimido[2,1-b][1,3]thiazine-7-carbonitrile] |
| 10 to 100 | – | COC(C)(C)c1ccc(-c2nc3n(c(=O)c2C#N)CCCS3)cn1 [Example 120] |
| > 1000 | – | COCC1CSc2nc(-c3cnc(C(C)(C)C)c(F)c3)c(C#N)c(=O)n2C1 (stereo not shown) [Example 125, 8-(6-(tert-butyl)-5-fluoropyridin-3-yl)-3-(methoxymethyl)-6-oxo-3,4-dihydro-2H,6H-pyrimido[2,1-b][1,3]thiazine-7-carbonitrile] |
| 100 to 500 | – | CC1CSc2nc(-c3ccc(C45CC(C4)C5)nc3)c(C#N)c(=O)n2C1 (stereo not shown) [Example 148, 8-(6-(bicyclo[1.1.1]pentan-1-yl)pyridin-3-yl)-3-methyl-6-oxo-3,4-dihydro-2H,6H-pyrimido[2,1-b][1,3]thiazine-7-carbonitrile] |
| > 1000 | – | CC(C)(C)c1ncc(-c2nc3n(c(=O)c2C#N)C[C@H](CO)CS3)cc1F [Example 158, (R)-8-(6-(tert-butyl)-5-fluoropyridin-3-yl)-3-(hydroxymethyl)-6-oxo-3,4-dihydro-2H,6H-pyrimido[2,1-b][1,3]thiazine-7-carbonitrile] |
| > 1000 | – | CC(C)(C)c1ccc(-c2nc3n(c(=O)c2C#N)C[C@@H](CO)CS3)cn1 [Example 129, (S)-8-(6-(tert-butyl)pyridin-3-yl)-3-(hydroxymethyl)-6-oxo-3,4-dihydro-2H,6H-pyrimido[2,1-b][1,3]thiazine-7-carbonitrile] |
| > 1000 | – | C[C@H]1CSc2nc(-c3cnc(C(C)(C)C)c(F)c3)c(C#N)c(=N)n2C1 [Example 112, (R)-8-(6-(tert-butyl)-5-fluoropyridin-3-yl)-6-imino-3-methyl-3,4-dihydro-2H,6H-pyrimido[2,1-b][1,3]thiazine-7-carbonitrile] |
| – | Inhibitor | CC1CSc2nc(-c3ccc(C45CC(C4)C5)nc3C34CC(C3)C4)c(C#N)c(=O)n2C1 (stereo not shown) [Example 150, 8-(2,6-di(bicyclo[1.1.1]pentan-1-yl)pyridin-3-yl)-3-methyl-6-oxo-3,4-dihydro-2H,6H-pyrimido[2,1-b][1,3]thiazine-7-carbonitrile] |
| 100 to 500 | – | CC1CSc2nc(-c3ccc(C4(C)COC4)nc3)c(C#N)c(=O)n2C1 (stereo not shown) [Example 153, 3-methyl-8-(6-(3-methyloxetan-3-yl)pyridin-3-yl)-6-oxo-3,4-dihydro-2H,6H-pyrimido[2,1-b][1,3]thiazine-7-carbonitrile] |
| 100 to 500 | – | CC1CSc2nc(-c3ccc(C(C)(CF)CF)nc3)c(C#N)c(=O)n2C1 (stereo not shown) [Example 155, 8-(6-(1,3-difluoro-2-methylpropan-2-yl)pyridin-3-yl)-3-methyl-6-oxo-3,4-dihydro-2H,6H-pyrimido[2,1-b][1,3]thiazine-7-carbonitrile] |
| 100 to 500 | – | CC(C)(C)c1ncc(-c2nc3n(c(=O)c2C#N)C[C@@H](CO)CS3)cn1 [Example 137, (S)-8-(2-(tert-butyl)pyrimidin-5-yl)-3-(hydroxymethyl)-6-oxo-3,4-dihydro-2H,6H-pyrimido[2,1-b][1,3]thiazine-7-carbonitrile] |
| > 1000 | – | C[C@@H]1CSc2cc(-c3ccc(C4(C)CC4)nc3)c(C#N)c(=O)n2C1 [Example 118, (S)-3-methyl-8-(6-(1-methylcyclopropyl)pyridin-3-yl)-6-oxo-3,4-dihydro-2H,6H-pyrido[2,1-b][1,3]thiazine-7-carbonitrile] |
